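Growth conditions: 96-well plates. Treatment: test compound, 48 hours, 5 concentrations. Analysis: linear interpolation between bracketing concentrations; unreached endpoints set to highest concentration. The concentration for 50% growth inhibition is given as GI50.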 The source made the active and inactive calls. Cut-off read from the data, not from the text of the source: active = GI50 up to about 1.1 µM and inactive = higher.
Tests used:
Test in all cases: DTP human tumour cell line panel, 48 h
CCRF-CEM = test system: CCRF-CEM
HOP-92 = test system: HOP-92
SF-539 = test system: SF-539
HCT-15 = test system: HCT-15
SNB-19 = test system: SNB-19
RPMI-8226 = test system: RPMI-8226
UO-31 = test system: UO-31
OVCAR-5 = test system: OVCAR-5
OVCAR-8 = test system: OVCAR-8
COLO 205 = test system: COLO 205
NCI-H23 = test system: NCI-H23
KM12 = test system: KM12
NCI-H460 = test system: NCI-H460
SK-MEL-5 = test system: SK-MEL-5
SN12C = test system: SN12C
A549 = test system: A549
MCF7 = test system: MCF7
HOP-62 = test system: HOP-62
NCI-H226 = test system: NCI-H226
HCC 2998 = test system: HCC 2998

| SMILES | GI50 (CCRF-CEM) | GI50 (HOP-92) | GI50 (SF-539) | GI50 (HCT-15) | GI50 (SNB-19) | GI50 (RPMI-8226) | GI50 (UO-31) | GI50 (OVCAR-5) | GI50 (OVCAR-8) | GI50 (COLO 205) | GI50 (NCI-H23) | GI50 (KM12) | GI50 (NCI-H460) | GI50 (SK-MEL-5) | GI50 (SN12C) | GI50 (A549) | GI50 (MCF7) | GI50 (HOP-62) | GI50 (NCI-H226) | GI50 (HCC 2998) |
| --- | --- | --- | --- | --- | --- | --- | --- | --- | --- | --- | --- | --- | --- | --- | --- | --- | --- | --- | --- | --- |
| O=P(O)(O)CCP(=O)(O)O | > 100 µM (inactive) | > 100 µM (inactive) | > 100 µM (inactive) | > 100 µM | > 100 µM (inactive) | > 100 µM (inactive) | > 100 µM (inactive) | > 100 µM (inactive) | > 100 µM (inactive) | > 100 µM (inactive) | > 100 µM (inactive) | > 100 µM (inactive) | > 100 µM (inactive) | > 100 µM (inactive) | > 100 µM (inactive) | > 100 µM (inactive) | > 100 µM (inactive) | > 100 µM (inactive) |  |  |
| COP(=O)(OC)/C(=C\c1cn(C(c2ccccc2)(c2ccccc2)c2ccccc2)cn1)NC(C)=O | 77.1 µM (inactive) | > 100 µM (inactive) | > 100 µM (inactive) | > 100 µM | > 100 µM (inactive) |  | > 100 µM (inactive) | > 100 µM (inactive) | > 100 µM (inactive) | 84.3 µM (inactive) | > 100 µM (inactive) | 52.4 µM (inactive) | > 100 µM (inactive) |  | > 100 µM (inactive) | 53.7 µM (inactive) | 88.3 µM (inactive) | > 100 µM (inactive) | > 100 µM (inactive) | > 100 µM (inactive) |
| COC(=O)c1ccccc1C#CCCCOS(C)(=O)=O | > 10 µM (inactive) |  | > 10 µM (inactive) | > 10 µM | > 10 µM (inactive) | > 10 µM (inactive) | > 10 µM (inactive) | > 10 µM (inactive) | > 10 µM (inactive) | > 10 µM (inactive) | > 10 µM (inactive) | > 10 µM (inactive) | > 10 µM (inactive) | > 10 µM (inactive) | > 10 µM (inactive) | > 10 µM (inactive) | > 10 µM (inactive) | > 10 µM (inactive) | > 10 µM (inactive) | > 10 µM (inactive) |
| CC(NC(=O)C(C)C(=O)Nc1ccc(C(F)(F)F)cc1)C(N)=O (stereo not given) | > 100 µM (inactive) | > 100 µM (inactive) | > 100 µM (inactive) | > 100 µM | 94 µM (inactive) | > 100 µM (inactive) | > 100 µM (inactive) | > 100 µM (inactive) | > 100 µM (inactive) | > 100 µM (inactive) | > 100 µM (inactive) | > 100 µM (inactive) | > 100 µM (inactive) | > 100 µM (inactive) | > 100 µM (inactive) | > 100 µM (inactive) | > 100 µM (inactive) |  | > 100 µM (inactive) |  |
| Br[C@@H]1[C@H]2c3nc4ccccc4nc3[C@@H]1C[C@H]2Br | 37 µM (inactive) | 41.2 µM (inactive) |  | 61.5 µM | > 100 µM (inactive) |  | 41.4 µM (inactive) | > 100 µM (inactive) | > 100 µM (inactive) | 45.7 µM (inactive) | 58.3 µM (inactive) | 51.4 µM (inactive) | 64.6 µM (inactive) | 26.5 µM (inactive) | > 100 µM (inactive) | 58.9 µM (inactive) | 81.7 µM (inactive) | > 100 µM (inactive) | 31.3 µM (inactive) | > 100 µM (inactive) |
| CC1=NN(c2nc(N)nc(CSc3cc(Cl)c(C)cc3S(N)(=O)=O)n2)C(C)(C)C1 | > 10 µM (inactive) |  | > 10 µM (inactive) | > 10 µM | > 10 µM (inactive) | > 10 µM (inactive) | 0.543 µM (active) | > 10 µM (inactive) | > 10 µM (inactive) | > 10 µM (inactive) | > 10 µM (inactive) | > 10 µM (inactive) | > 10 µM (inactive) | > 10 µM (inactive) | > 10 µM (inactive) | > 10 µM (inactive) | > 10 µM (inactive) | > 10 µM (inactive) | > 10 µM (inactive) | > 10 µM (inactive) |
